Consider four compounds from ChEMBL document CHEMBL4184137, “Lysine Deacetylase Inhibitors in Parasites: Past, Present, and Future Perspectives” (J Med Chem, 2017).

Data set [1] in a line: Selectivity index, ratio of IC50 for African green monkey Vero cells to IC50 for Plasmodium falciparum W2. The conditions noted are these: read-out: Ratio IC50. Type of data set: toxicity.
For data set [2], the system named is Leishmania donovani. Description: Antilieshmanial activity against promastigote stage of Leishmania donovani by fluorimetric assay. Type of data set: functional, organism-based.
Data set [3] concerns Plasmodium falciparum. Briefly: Antimalarial activity against Plasmodium falciparum using Malstat reagent by parasite lactate dehydrogenase assay. Type of data set: functional, organism-based.
A short description of data set [4]: Selectivity index, ratio of IC50 for African green monkey Vero cells to IC50 for Plasmodium falciparum D6. The conditions noted are these: read-out: Ratio IC50. Type of data set: toxicity.
The next data set deals with T1, Histone deacetylase (Plasmodium falciparum, UniProt Q9XYC7).
T1 sequence (Q9XYC7 whole entry): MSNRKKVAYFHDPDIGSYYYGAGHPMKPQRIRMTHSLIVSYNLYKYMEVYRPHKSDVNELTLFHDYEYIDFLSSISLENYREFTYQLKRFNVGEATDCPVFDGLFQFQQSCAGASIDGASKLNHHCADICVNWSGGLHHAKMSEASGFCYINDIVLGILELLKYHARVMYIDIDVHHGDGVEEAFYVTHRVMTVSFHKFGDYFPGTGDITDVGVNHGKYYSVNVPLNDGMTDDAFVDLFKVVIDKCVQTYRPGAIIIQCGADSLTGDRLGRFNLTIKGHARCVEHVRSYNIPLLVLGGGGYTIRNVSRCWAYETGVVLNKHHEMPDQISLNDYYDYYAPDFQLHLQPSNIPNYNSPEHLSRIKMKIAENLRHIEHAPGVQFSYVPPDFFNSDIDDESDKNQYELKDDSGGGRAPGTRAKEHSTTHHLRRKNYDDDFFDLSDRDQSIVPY
Briefly: Inhibition of recombinant Plasmodium falciparum HDAC1 using HDAC substrate-3 after 30 mins by fluorescence assay.

In data set [5] the test system is Leishmania donovani. Briefly: Antilieshmanial activity against amastigote stage of Leishmania donovani by fluorimetric assay. It counts as functional, organism-based.
For a further data set, the system named is Toxoplasma gondii. Briefly: Antiparasitic activity against Toxoplasma gondii. Type of data set: functional, organism-based.
The test system of data set [6] is Schistosoma mansoni. Briefly: Antiparasitic activity against Schistosoma mansoni assessed cell viability at 20 uM after 4 days. It counts as functional.
Data set [7] deals with Schistosoma mansoni. Description: Antiparasitic activity against Schistosoma mansoni assessed as cumulative egg reduction at 20 uM. It counts as functional. Details: scale not given: the % may be the effect or the level left.
The test system of data set [8] is Schistosoma mansoni. Description: Antiparasitic activity against Schistosoma mansoni assessed as pairing at 20 uM after 5 days relative to control. Type of data set: functional.
A further data set deals with Trypanosoma cruzi. Description: Antitrypanosomal activity against epimastigotes of Trypanosoma cruzi […] by Alamar Blue assay. Type of data set: functional, organism-based. In general terms: Alamar Blue is a resazurin reagent that responds to reducing activity.
Data set [9] is described as follows: Inhibition of recombinant Trypanosoma cruzi Sir2rp3.
Data set [10] concerns the target T2, NAD-dependent protein deacetylase sirtuin-1 (Homo sapiens, UniProt Q96EB6).
T2 sequence (Q96EB6 whole entry): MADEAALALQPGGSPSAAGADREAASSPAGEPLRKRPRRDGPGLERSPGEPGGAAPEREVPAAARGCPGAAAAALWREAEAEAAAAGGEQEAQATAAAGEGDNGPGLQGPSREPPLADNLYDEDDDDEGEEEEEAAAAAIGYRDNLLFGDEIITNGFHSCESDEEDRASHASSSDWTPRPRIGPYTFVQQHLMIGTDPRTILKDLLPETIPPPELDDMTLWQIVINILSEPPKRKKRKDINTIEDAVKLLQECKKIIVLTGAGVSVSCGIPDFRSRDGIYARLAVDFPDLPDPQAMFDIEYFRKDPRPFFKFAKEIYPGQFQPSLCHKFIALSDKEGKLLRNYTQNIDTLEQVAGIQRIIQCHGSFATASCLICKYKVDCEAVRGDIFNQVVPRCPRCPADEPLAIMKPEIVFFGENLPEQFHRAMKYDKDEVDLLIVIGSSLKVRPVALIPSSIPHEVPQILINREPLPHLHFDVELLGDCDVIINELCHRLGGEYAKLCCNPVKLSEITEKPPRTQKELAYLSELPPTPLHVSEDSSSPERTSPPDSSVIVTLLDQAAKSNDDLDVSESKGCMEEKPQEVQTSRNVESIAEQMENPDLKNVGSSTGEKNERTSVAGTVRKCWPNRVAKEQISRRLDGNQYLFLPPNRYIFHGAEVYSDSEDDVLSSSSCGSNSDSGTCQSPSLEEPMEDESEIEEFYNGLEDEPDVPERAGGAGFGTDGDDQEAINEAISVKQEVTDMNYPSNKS
Briefly: Inhibition of human SIRT1.

The nature of data set [11]: Inhibition of Plasmodium falciparum Sir2A.
Data set [12] relates to Plasmodium falciparum. Description: Antiplasmodial activity against Plasmodium falciparum 3D7 assessed as growth inhibition after 24 hrs by measuring incorporation of [3H]-hypoxanthine by liquid scintillation counting method. Type of data set: functional, organism-based.

Structures are written as SMILES. pEC50, pIC50: −log10 of the molar value. *1 amine or outer side, *2 acyl side, *3 side chain or, on linkers, in order; H or OH if unused. Where a SMILES comes first, the peptide text is derived from it. Bridges are numbered along the chain shown (N, C = ends). [ ]: non-standard residue; d: D form. X1 = CC(C)CCCCCCCCC[C@H](CC(=O)[*:1])O[*:2]

What is called pIC50 is the negative decadic logarithm of the IC50, by convention in mol/L. As to `CC[C@H]1OC(=O)[C@H](C)[C@@H](O[C@H]2C[C@@](C)(OC)[C@@H](O)[C@H](C)O2)[C@H](C)[C@@H](O[C@@H]2O[C@H](C)C[C@H](N(C)Cc3ccc(-c4cn(CCCCCCCCCC(=O)NO)nn4)cc3)[C@H]2O)[C@](C)(O)C[C@@H](C)C(=O)[C@H](C)[C@@H](O)[C@]1(C)O`, the selectivity ratio was greater than 6 in data set [1] and greater than 3.4 in data set [4]. The pIC50 in the data set with Leishmania donovani [2] is 5.49; with Plasmodium falciparum [3] it was 5.88 to 6.12; on Histone deacetylase, 6.40; in the data set on Leishmania donovani [5] it was 5.33.
In the data set on Toxoplasma gondii, `CCC(=O)CCCCC[C@@H]1NC(=O)[C@H]2CCCCN2C(=O)[C@H]([C@@H](C)CC)NC(=O)[C@H](Cc2cn(OC)c3ccccc23)NC1=O` [APICIDIN] showed a negative-log IC50 (pIC50) of 7.82 to 7.89.
One may read the pEC50 as −log10 of the EC50, conventionally taken in molar units. Turning to `CC(C(=O)Nc1cccc(/N=C/c2c(O)ccc3ccccc23)c1)c1ccccc1` (stereo not given) [SALERMIDE], the Activity in the data set with Schistosoma mansoni [6] is 100%; in the data set with Schistosoma mansoni [7] it was 95%; with Schistosoma mansoni [8] it was 100%. In the data set with Trypanosoma cruzi, the pEC50 was 4.97. Also, the pIC50 in [9] is 6.00.
Consider `CC(C)CCCCCCCCC[C@@H]1CC(=O)N[C@@H](CCC(=O)O)C(=O)N[C@@H](CC(C)C)C(=O)N[C@H](CC(C)C)C(=O)N[C@@H](C(C)C)C(=O)N[C@@H](CC(=O)O)C(=O)N[C@H](CC(C)C)C(=O)N[C@@H](CC(C)C)C(=O)O1` [SURFACTIN] (EL[dL]VD[dL]L; linker N-C via X1), for which the values for the pIC50 (in [10]; in data set [11]; in the data set on Plasmodium falciparum [12]) were less than 3.22, 4.46 and 5.05, respectively.
